Literature values as cited in patent US12137716B2, “Methods of liver disease treatment” (priority 2015, dated 2024).
Entries after “also recorded” stand apart in the source; their conditions may differ.

What was measured:
[1] = system: mice fed either a MCD or MD diet
NASH model mice = conditions: NASH mouse model
patients with severe ALD = conditions: added to corticosteroids
[2] = system: rats and baboons fed ethanol
[3] = system: ethanol-induced fibrotic mouse model
[4] = oral administration
[5] = system: patients with both alcoholic and non-alcoholic liver diseases; conditions: patients with liver disease
[6] = system: CCl (4) induced cirrhosis; conditions: CCl4 induced

N=C(N)NCCC[C@H](N)C(=O)O [Arginine]
hepatic microcirculation and tissue oxygenation (patients with cirrhosis): improves hepatic microcirculation and tissue oxygenation

N[C@@H](CCC(=O)N[C@@H](CS)C(=O)NCC(=O)O)C(=O)O [GSH, Glutathione]
GSH in the mitochondria [1]: restored GSH in the mitochondria | hepatocellular injury [1]: ameliorated hepatocellular injury

C[N+](C)(C)C[C@H](O)CC(=O)[O-] [L-Carnitine]
progression of NASH (NASH model mice): prevents progression of NASH

CC(=O)N[C@@H](CS)C(=O)O [NAC, N-acetylcysteine]
hepatic fatty acid accumulation (ethanol-fed rats): decrease hepatic fatty acid accumulation | inflammatory markers (ethanol-fed rats): decrease inflammatory markers | hepatorenal syndrome, infection, short-term mortality (patients with severe ALD): decrease hepatorenal syndrome, infection, and short-term mortality

C[S+](CC[C@H](N)C(=O)O)C[C@H]1O[C@@H](n2cnc3c(N)ncnc32)[C@H](O)[C@@H]1O (stereo partly drawn) [SAMe, S-adenosylmethionine]
hepatic GSH levels ([2]; ethanol-fed): restored hepatic GSH levels | mitochondrial lesions and leakage ([2]; ethanol-fed): positive effect on mitochondrial lesions and leakage | oxidative stress and hepatic stellate cell activation [3]: attenuate oxidative stress and hepatic stellate cell activation | oral bioavailability [4]: low bioavailability | GSH in the mitochondria [1]: restored GSH in the mitochondria | hepatocellular injury [1]: ameliorated hepatocellular injury | hepatic glutathione levels [5]: significant increase; also recorded: increases hepatic GSH

COc1cc(/C=C/C(=O)CC(=O)/C=C/c2ccc(O)c(OC)c2)ccc1O [curcumin, Curcumin]
cirrhosis [6]: reverses

Phosphatidylcholine [PC]
liver injury ([2]; CCl4 and ethanol-induced): attenuated CCI4 and ethanol-induced liver injury | albumin-bound hydroxyproline levels (HCV patients): decreased levels | procollagen-III-peptide levels (HBV patients): reduced levels
